Results from article PMC3733398 (ACS medicinal chemistry letters, 2013).
Values after ≈ are worked out from the molar mass of the structure shown. Values joined by “and” are separate entries in the source; they are usually repeats but may differ in a detail not shown here. Equal values may be shown once.

Key:
CYP3A4 [1] = molecular target: T1, CYP3A4 (Homo sapiens, UniProt P08684); assay: Time dependent inhibition of human CYP3A4; conditions: at 10 μM
MDR-Mtb HREKP = assay: microbe, parasite or virus in culture; assay type: cell-based; conditions: Mycobacterium tuberculosis
MDR-Mtb HRERb = assay: microbe, parasite or virus in culture; assay type: cell-based; conditions: Mycobacterium tuberculosis
XDR-Mtb HREKO = assay: microbe, parasite or virus in culture; assay type: cell-based; conditions: Mycobacterium tuberculosis
MDR-Mtb HREZSKP = assay: microbe, parasite or virus in culture; assay type: cell-based; conditions: Mycobacterium tuberculosis
[2] = tested on: DS-Mtb2 (drug sensitive clinical isolate #2); assay: MIC against clinical strain DS-Mtb2; assay type: cell-based; conditions: Mycobacterium tuberculosis, 90% growth inhibition by optical density
[3] = tested on: sensitive, MDR and XDR clinical Mtb strains; assay type: cell-based, Mycobacterium tuberculosis; conditions: range over the DS, MDR and XDR clinical strains of Table 2
[4] = tested on: DS-Mtb1 (drug sensitive clinical isolate #1); assay: MIC against clinical strain DS-Mtb1; assay type: cell-based; conditions: Mycobacterium tuberculosis
Mtb H37Rv = assay: MIC against replicating Mtb H37Rv, dual read-out; assay type: cell-based; conditions: Mycobacterium tuberculosis
XDR-Mtb HRESKO = assay: microbe, parasite or virus in culture; assay type: cell-based; conditions: Mycobacterium tuberculosis
in vitro = in vitro ADME
CYP3A4 [5] = molecular target: T1, CYP3A4; assay: Human cytochrome P-450 inhibition, CYP 3A4; conditions: panel of human cytochrome P-450 enzymes
[6] = rat, microsomes
in vivo = conditions: rat, iv, 1 mg/kg

T1 sequence (P08684 whole entry): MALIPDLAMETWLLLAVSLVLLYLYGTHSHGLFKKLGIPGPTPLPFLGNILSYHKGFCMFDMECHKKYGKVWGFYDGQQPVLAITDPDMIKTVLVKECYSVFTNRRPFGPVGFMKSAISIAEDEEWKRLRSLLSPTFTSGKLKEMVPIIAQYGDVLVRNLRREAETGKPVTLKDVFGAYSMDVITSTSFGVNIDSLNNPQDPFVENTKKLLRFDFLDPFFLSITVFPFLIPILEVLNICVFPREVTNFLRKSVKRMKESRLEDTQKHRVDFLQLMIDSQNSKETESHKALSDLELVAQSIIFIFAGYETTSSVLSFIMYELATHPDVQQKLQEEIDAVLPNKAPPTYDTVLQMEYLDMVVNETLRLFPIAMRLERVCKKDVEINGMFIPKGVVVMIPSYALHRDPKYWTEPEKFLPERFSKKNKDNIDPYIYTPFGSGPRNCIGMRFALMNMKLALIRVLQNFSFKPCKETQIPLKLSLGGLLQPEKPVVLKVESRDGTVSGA

Row | Compound | time dependent inhibition of human CYP3A4 (CYP3A4 [1]) | MIC (MDR-Mtb HREKP) | MIC (MDR-Mtb HRERb) | MIC (XDR-Mtb HREKO) [µg/mL] | MIC (MDR-Mtb HREZSKP) | MIC [2] [µg/mL] | MIC range against the clinical strains [3] [µM] | MIC [4] | MIC (Mtb H37Rv) [µM] | MIC (XDR-Mtb HRESKO) [µg/mL] | fraction unbound (in vitro) | inhibition at 10 µM (CYP3A4 [5]) [%] | % metabolized [6] [%] | clearance (in vivo) [mL/min/kg]
1 | Cc1ccn2c(C(=O)NCc3ccc(Oc4ccc(F)cc4)cc3)c(C)nc2c1 [Compound 18] | time dependent inhibitors | < 0.01 µg/mL | 0.31 µg/mL (≈ 0.796 µM) | < 0.01 | 0.03 µM to 0.8 µM and 0.01 µg/mL to 0.3 µg/mL | < 0.01 | <0.03 to 0.8 | < 0.01 µg/mL | < 0.005 | < 0.01 |  |  |  | 
2 | O=[N+]([O-])c1cn2c(n1)OC[C@@H](OCc1ccc(OC(F)(F)F)cc1)C2 [PA-824, reference compound] |  | 0.5 µM to 0.9 µM and 0.2 µg/mL to 0.3 µg/mL | 0.5 µM to 0.9 µM and 0.2 µg/mL to 0.3 µg/mL | 0.08 (≈ 0.223 µM) | 0.5 µM to 0.9 µM and 0.2 µg/mL to 0.3 µg/mL | > 5 |  | 0.5 µM to 0.9 µM and 0.2 µg/mL to 0.3 µg/mL |  | 0.3 (≈ 0.835 µM) |  |  |  | 
3 | Cc1ccn2c(C(=O)NCc3ncc(C(F)(F)F)cc3Cl)c(C)nc2c1 [Compound 13] | time dependent inhibitors | 0.2 µg/mL (≈ 0.523 µM) | 13 µM to 26 µM and 5 µg/mL to 10 µg/mL | 0.3 (≈ 0.784 µM) | 2.5 µg/mL (≈ 6.53 µM) | 0.3 (≈ 0.784 µM) |  | 0.3 µg/mL (≈ 0.784 µM) |  | 0.3 (≈ 0.784 µM) | 0.089 | 0 | 19 | 25
4 | Cc1ccc2nc(C)c(C(=O)NCc3ccccc3)n2c1 [Compound 9] |  | < 0.01 µg/mL | 0.63 µg/mL (≈ 2.26 µM) | < 0.01 | < 0.01 µg/mL | < 0.01 |  | 0.04 µM to 0.07 µM and 0.01 µg/mL to 0.02 µg/mL |  | < 0.01 |  |  |  | 
